From paper PMC4112042, “Phase 1 dose-escalation study of the PARP inhibitor CEP-9722 as monotherapy or in combination with temozolomide in patients with solid tumors” (Cancer Chemotherapy and Pharmacology, 2014)

Assays:
[1] = Plasma pharmacokinetics of CEP-8983 after oral CEP-9722; assay type: in vivo, human; parameters: AUC0–∞, mean ± SD / AUC0–t, mean ± SD / AUCτ, mean ± SD: concentration or dose not given beside the values
Method: Pharmacokinetic serum samples were collected on day 1 of cycle 1 pre-dose and 0.5, 1, 2, 3, 4, 6, 8, 10, and 24 h post-dose; and on day 5 of cycle 1 and cycle 2 pre-dose, and 0.5, 1, 2, 3, 4, 6, 8, 10, 24, and 48 h post-dose. Urine samples were obtained on day 1 of cycle 1 during 4 intervals in the 24 h following study drug administration. Pharmacokinetic parameters (area under the plasma drug concentration–time curve from time 0 to infinity [AUC0–∞], AUC from time 0 to the time of the last measurable drug concentration [AUC0–t], AUC for 1 dosing interval [AUCτ] following multiple doses, maximum observed plasma concentration [C max], and time to maximum observed plasma concentration [T max]) were summarized at each visit (day 1 of cycle 1 and day 5 of cycles 1 and 2) using descriptive statistics.

PARP-1 = PARP-1 enzyme; cited from earlier work
PARP-2 = PARP-2 enzyme; cited from earlier work
[2] = system: chemoresistant tumor cells; parameters: method as in PMID 17699724; conditions: in vitro and in xenograft models; cited from earlier work
human bone marrow cells = system: human bone marrow cells; parameters: method as in PMID 17699724; conditions: CFU-GM colony-forming assay; cited from earlier work
[3] = nonacidic environments; cited from earlier work
[4] = in vivo; cited from earlier work
[5] = day 5 of cycle 1, nonsmoker without medication affecting gastric pH, n = 13
[6] = day 5 of cycle 1, smoker and/or with medication affecting gastric pH, n = 11

## COc1cccc2[nH]c3c4c(c5c(c3c12)C(=O)NC5=O)CCC4 [CEP-8983]
[1]; day 1 of cycle 1, nonsmokers not receiving gastric pH-modifying medications
  mean AUC0–t: 4,960.6 ng h/mL
[1]; day 1 of cycle 1, smokers and/or patients receiving gastric pH-modifying medications
  mean AUC0–t: 2,747.3 ng h/mL
[1]; [5]
  AUC0–t, mean ± SD: 3,138.0 ± 2,160.74 ng h/mL
  AUC0–∞, mean ± SD: 4,111.0 ± 4,126.79 ng h/mL
  AUCτ, mean ± SD: 3,851.1 ± 3,578.78 ng h/mL
  C max, mean ± SD: 607.5 ± 319.87 ng/mL
  CL/F, mean ± SD: 20.4 ± 25.80 L/h
  Percentage extrapolation, mean ± SD: 3.7 ± 3.82%
  V/F, mean ± SD: 58.1 ± 60.23 L
  t max, mean ± SD: 36 ± 39.6 min
  λ z, mean ± SD: 0.1 ± 0.13 h⁻¹
[1]; [6]
  AUC0–t, mean ± SD: 1,339.3 ± 2,127.07 ng h/mL
  AUC0–∞, mean ± SD: 2,838.9 ± 5,740.57 ng h/mL
  AUCτ, mean ± SD: 2,304.7 ± 4,161.29 ng h/mL
  C max, mean ± SD: 352.5 ± 380.57 ng/mL
  CL/F, mean ± SD: 67.1 ± 62.14 L/h
  Percentage extrapolation, mean ± SD: 5.5 ± 8.29%
  V/F, mean ± SD: 102.3 ± 100.76 L
  t 1/2, mean ± SD: 42 ± 46.2 min
  t max, mean ± SD: 36 ± 39.6 min
  λ z, mean ± SD: 0.2 ± 0.21 h⁻¹
[1]; day 5 of cycle 2, nonsmokers not receiving gastric pH-modifying medications
  mean AUC0–t: 2,574.4 ng h/mL
[1]; day 5 of cycle 2, smokers and/or patients receiving gastric pH-modifying medications
  mean AUC0–t: 1,457.9 ng h/mL
PARP-1
  IC50: 20 nM
PARP-2
  IC50: 6 nM
[2]
  sensitivity of chemoresistant tumor cells to temozolomide: increased the sensitivity
Human bone marrow cells
  myelotoxicity of temozolomide: only modest increases
[3]
  solubility: poorly soluble
[4]
  oral bioavailability: low oral bioavailability
